The text below walks through data of US20030125389A1, “Beta-amino acid derivatives useful for the treatment of bacterial infections” (priority 2001, published 2003).

Experiment [1] relates to a variety of standard laboratory microorganisms. The conditions noted are these: cited from earlier work.
Experiment [2] has as its system Escherichia coli ATCC 25922. Kind of experiment: Mouse septicemia model. The conditions noted are these: ATCC25922, ICR male mice, E. coli ATCC 25922 intraperitoneally, compound PO or IV at 1 and 5 hours after inoculation, mortality recorded for 7 days. The class given is in vivo. The protocol:
Escherichia coli ATCC 25922 was used to test the efficacy of compounds in a mouse septicemia model using six ICR male mice per group. Mice were inoculated intraperitoneally with 2×10^5 cfu/mouse in 0.5 ml of Brain-Heart Infusion broth supplemented with 5% mucin. The compounds were tested at 40, 20, 10, 5 and 2.5 mg/kg orally (PO) or at 20, 10, 5 and 2.5 mg/kg intravenously (IV) at 1 and 5 hours after bacterial inoculation. Controls included vehicle control (0.9% NaCl, 10 ml/kg) and an antibiotic control with ampicillin. Mortality was recorded for 7 days, and an ED50 was determined by non-linear regression.

Experiment [3] has as its system Gram negative and Gram positive bacteria. The conditions noted are these: against Gram negative and Gram positive bacteria; cited from earlier work.

In the case of `CN(CC(=O)O)NC(=O)C[C@H](N)CCCN` [Deoxynegamycin, D-3,6-diaminiohexanoic acid-2-(carboxymethyl)-2-methylhyrazide], the “antimicrobial activity in vitro” value in experiment [1] is “broad-spectrum antibacterial and antifungal activity”.

The molecule `CNC[C@H](O)C[C@@H](N)CC(=O)NN(C)CC(=O)O` [Example 1] displayed an ED50 in experiment [2] of less than 40 mg/kg.

Molecule `CN(CC(=O)O)NC(=O)C[C@H](N)C[C@@H](F)CN` [Example 5, {N′-[(3R)-Amino-6-amino-(5R)-fluorohexanoyl]-N-methylhydrazino}acetic acid] had an ED50 in experiment [2] of less than 40 mg/kg.

`CNC[C@H](F)C[C@@H](N)CC(=O)NN(C)CC(=O)O` [Example 7, {N′-[(3R)-Amino-(5R)-fluoro-6-methylaminohexanoyl]-N-methylhydrazino}acetic acid]: the ED50 in experiment [2] was less than 40 mg/kg.

For the molecule `CN(CC(=O)O)NC(=O)C[C@H](N)C[C@@H](O)CN` [Negamycin, [2-{(3R, 5R)-3,6-diamino-5-hydroxyhexanoyl}-1-methylhydrazino]acetic acid], the inhibitory activity entry in experiment [3] was “strong inhibitory activity”.

The ED50 is the dose at which the effect has come halfway, by size or by number of responders.
